Assay results published in patent US11447472B2, “Polymorophs of 5-aza-4′-thio-2′-deoxycytidine” (Southern Research Institute, priority 2020, dated 2022).
In brackets after ≈: the same amount, converted by molar mass.

What was measured:
Type in all cases: physicochemical
[1] = Chemical stability of aza-T-dCyd in solutions (RT, 50° C., 80° C.), HPLC; conditions: for purity in solution (chemical stability): RT for 24 h, and 50° C. or 80° C. for 1 hour, HPLC
Method: The chemical stability of aza-T-dCyd was determined. Aza-T-dCyd was prepared in 1,4-dioxane, acetonitrile (ACN), isopropanol (IPA), and methyl ethyl ketone. Each solution was divided over 3 vials and incubated at RT for 24 hours, at 50° C. for 1 hour, or at 80° C. for 1 hour. The solutions were analyzed by HPLC at the start and after the incubation time.

[2] = Stability tests at 5° C.: mother liquors and solid phases of suspensions, HPLC; conditions: for chemical stability (purity over time) / purity decreased over time to: 5° C.; for chemical stability (purity over time): 70 hours; for purity decreased over time to: about 70 hours, area %
Method: Additional stability tests were performed at 5° C. Suspensions of the starting material were prepared in water, acetonitrile, ethanol (EtOH), and isopropanol. The mother liquors of the suspensions and the water solution were analyzed by HPLC at regular intervals over 3 days.
The solid phases from the suspensions were also evaluated for purity after 72 h. […] Therefore, the aza-T-dCyd appeared chemically stable in the solid phase after 70-hour incubation at 5° C.

[3] = Thermodynamic solubility, shake-flask method; conditions: for solubility at 24 h: organic solvent or mixture, thermodynamic from solid, RT
Method: The thermodynamic solubility of aza-T-dCyd was determined according to the shake-flask method. Suspensions of the crystalline aza-T-dCyd were prepared in 25 neat solvents. Small aliquots of solvent were added to the aza-T-dCyd until thin suspensions were obtained. Subsequently, the samples were equilibrated at RT under continuous stirring for 24 hours. After equilibration, a small aliquot of mother liquor was filtered and analyzed by HPLC. The concentration of the solute was determined against a calibration curve of the aza-T-dCyd. The solubility values of aza-T-dCyd at room temperature are listed in Table 3 according to the US Pharmacopeia's classification (USP29). The aza-T-dCyd was soluble in high boiling point solvents such as DMF and DMA. Generally, aza-T-dCyd was slightly or very slightly soluble in polar solvents and practically insoluble in non-polar solvents.

purity in solution (chemical stability) ([1]; 1,4-dioxane): > 95%
chemical stability in solution ([1]; IPA, heated at 80° C. (1 hour) or stored at RT for 24 h): degraded significantly
purity in solution (chemical stability) ([1]; acetonitrile): > 95%
chemical stability in solution ([1]; methyl ethyl ketone, 1 hour at 50° C. and 80° C., 24 hour at RT): significant decomposition
chemical stability (purity over time) ([2]; IPA, mother liquor): remained stable
purity decreased over time to ([2]; acetonitrile, mother liquor): 84%
chemical stability (purity over time) ([2]; ethanol, mother liquor): remained stable
Purity of Aza-T-dCYd after 72 h at 5° C. ([2]; solid phase from ACN suspension): 98.8 area %
Purity of Aza-T-dCYd after 72 h at 5° C. ([2]; solid phase from EtOH suspension): 99.8 area %
Purity of Aza-T-dCYd after 72 h at 5° C. ([2]; solid phase from IPA suspension): 99.4 area %
purity of solids recovered from the suspensions ([2]; solid phases from the four solvents after 72 h at 5° C.): about 99 % (area %)
purity decreased over time to ([2]; water solution): 78%
USP29 class. ([3]; 2,2,2,-trifluoroethanol, Methanol (rows r7-r8), class wraps over two lines: Slightly Soluble): Slightly
USP29 class. ([3]; Anisole to Toluene (rows r20-r33), class wraps over two lines: Practically insoluble): Practically
USP29 class. ([3]; Dimethylformamide, N,N-dimethylacetamide (rows r5-r6)): Soluble
USP29 class. ([3]; Ethanol to 1,2-dimethoxyethane (rows r9-r19), class wraps over three lines: Very Slightly Soluble): Very
solubility at 24 h ([3]; 1,2-dimethoxyethane): 100 µg/mL (≈ 409 µM)
solubility at 24 h ([3]; 1,4-dioxane): 300 µg/mL (≈ 1230 µM)
solubility at 24 h ([3]; 1-propanol): 400 µg/mL (≈ 1640 µM)
solubility at 24 h ([3]; 2,2,2,-trifluoroethanol): 4100 µg/mL (≈ 16800 µM)
solubility at 24 h ([3]; 2-butanol): 300 µg/mL (≈ 1230 µM)
solubility at 24 h ([3]; 2-methyltetrahydrofuran): 100 µg/mL (≈ 409 µM)
solubility at 24 h ([3]; 2-propanol): 400 µg/mL (≈ 1640 µM)
solubility at 24 h ([3]; 4-methyl-2-pentanone): 100 µg/mL (≈ 409 µM)
solubility at 24 h ([3]; Acetone): 200 µg/mL (≈ 819 µM)
solubility at 24 h ([3]; Acetonitrile): 100 µg/mL (≈ 409 µM)
solubility at 24 h ([3]; Anisole): < 100 µg/mL
solubility at 24 h ([3]; Chloroform): < 100 µg/mL
solubility at 24 h ([3]; Cumene): < 100 µg/mL
solubility at 24 h ([3]; Cyclohexane): < 100 µg/mL
solubility at 24 h ([3]; Dichloromethane): < 100 µg/mL
solubility at 24 h ([3]; Diethyl ether): < 100 µg/mL
solubility at 24 h ([3]; Dimethylformamide): 65800 µg/mL (≈ 269000 µM)
solubility at 24 h ([3]; Ethanol): 800 µg/mL (≈ 3270 µM)
solubility at 24 h ([3]; Ethyl acetate): < 100 µg/mL
solubility at 24 h ([3]; Ethyl formate): < 100 µg/mL
solubility at 24 h ([3]; Heptane): < 100 µg/mL
solubility at 24 h ([3]; Isopropyl acetate): < 100 µg/mL
solubility at 24 h ([3]; Methanol): 3600 µg/mL (≈ 14700 µM)
solubility at 24 h ([3]; Methyl ethyl ketone): < 100 µg/mL
solubility at 24 h ([3]; N,N-dimethylacetamide): 60000 µg/mL (≈ 246000 µM)
solubility at 24 h ([3]; Tetrahydrofuran): 100 µg/mL (≈ 409 µM)
solubility at 24 h ([3]; Toluene): < 100 µg/mL
solubility at 24 h ([3]; p-Xylene): < 100 µg/mL
solubility at 24 h ([3]; tert-butyl methyl ether): < 100 µg/mL
SMILES: Nc1ncn([C@H]2C[C@H](O)[C@@H](CO)S2)c(=O)n1 [aza-T-dCyd, 5-Aza-4′-thio-2′-deoxycytidine]
